Assay results reported in patent US20160237071A1, “T-TYPE CALCIUM CHANNEL INHIBITOR” (NISSAN CHEMICAL INDUSTRIES, LTD., priority 2013, published 2016).

Molecular target: T1, Human T-type calcium channel (Cav 3.2) (Homo sapiens, UniProt O95180)
T1 construct: Edward Perez-Reyes, University of Virginia, USA; host or cells: HEK293
Experiment: Calcium influx inhibition assay
Type: cell-based
Conditions: T-type calcium channel inhibition concentration; Cav 3.2 expressing HEK293 cells, FLIPR Calcium 4 fluorescence; read-out: C50
Procedure: Human T-type calcium channel (Cav 3.2) expressing HEK293 cells were obtained from Prof. Edward Perez-Reyes, University of Virginia, USA. The calcium-sensitive fluorescent dye used was FLIPR Calcium 4 Assay Kit (Molecular Devices).
To a black 96-well plate with a clear bottom coated with type I collagen, the human T-type calcium channel (Cav 3.2) expressing HEK293 cells were seeded and cultured overnight, and the culture medium was removed. A solution of the calcium-sensitive fluorescent dye was added, and the whole was incubated at 37° C. in an atmosphere of 5% carbon dioxide for 30 minutes. To the plate, a diluted solution of a compound was added, and the whole was further incubated at 37° C. in an atmosphere of 5% carbon dioxide for 30 minutes. While fluorescence was continuously analyzed from the bottom with a FlexStation 3 (Molecular Devices), a calcium solution was added. […] From the rise in the fluorescence from the base line, the inhibition percentage was calculated. The logarithms of compound concentrations were plotted with respect to the inhibition activities to obtain an IC50 value (50% inhibition concentration).

T1 sequence (O95180 whole entry): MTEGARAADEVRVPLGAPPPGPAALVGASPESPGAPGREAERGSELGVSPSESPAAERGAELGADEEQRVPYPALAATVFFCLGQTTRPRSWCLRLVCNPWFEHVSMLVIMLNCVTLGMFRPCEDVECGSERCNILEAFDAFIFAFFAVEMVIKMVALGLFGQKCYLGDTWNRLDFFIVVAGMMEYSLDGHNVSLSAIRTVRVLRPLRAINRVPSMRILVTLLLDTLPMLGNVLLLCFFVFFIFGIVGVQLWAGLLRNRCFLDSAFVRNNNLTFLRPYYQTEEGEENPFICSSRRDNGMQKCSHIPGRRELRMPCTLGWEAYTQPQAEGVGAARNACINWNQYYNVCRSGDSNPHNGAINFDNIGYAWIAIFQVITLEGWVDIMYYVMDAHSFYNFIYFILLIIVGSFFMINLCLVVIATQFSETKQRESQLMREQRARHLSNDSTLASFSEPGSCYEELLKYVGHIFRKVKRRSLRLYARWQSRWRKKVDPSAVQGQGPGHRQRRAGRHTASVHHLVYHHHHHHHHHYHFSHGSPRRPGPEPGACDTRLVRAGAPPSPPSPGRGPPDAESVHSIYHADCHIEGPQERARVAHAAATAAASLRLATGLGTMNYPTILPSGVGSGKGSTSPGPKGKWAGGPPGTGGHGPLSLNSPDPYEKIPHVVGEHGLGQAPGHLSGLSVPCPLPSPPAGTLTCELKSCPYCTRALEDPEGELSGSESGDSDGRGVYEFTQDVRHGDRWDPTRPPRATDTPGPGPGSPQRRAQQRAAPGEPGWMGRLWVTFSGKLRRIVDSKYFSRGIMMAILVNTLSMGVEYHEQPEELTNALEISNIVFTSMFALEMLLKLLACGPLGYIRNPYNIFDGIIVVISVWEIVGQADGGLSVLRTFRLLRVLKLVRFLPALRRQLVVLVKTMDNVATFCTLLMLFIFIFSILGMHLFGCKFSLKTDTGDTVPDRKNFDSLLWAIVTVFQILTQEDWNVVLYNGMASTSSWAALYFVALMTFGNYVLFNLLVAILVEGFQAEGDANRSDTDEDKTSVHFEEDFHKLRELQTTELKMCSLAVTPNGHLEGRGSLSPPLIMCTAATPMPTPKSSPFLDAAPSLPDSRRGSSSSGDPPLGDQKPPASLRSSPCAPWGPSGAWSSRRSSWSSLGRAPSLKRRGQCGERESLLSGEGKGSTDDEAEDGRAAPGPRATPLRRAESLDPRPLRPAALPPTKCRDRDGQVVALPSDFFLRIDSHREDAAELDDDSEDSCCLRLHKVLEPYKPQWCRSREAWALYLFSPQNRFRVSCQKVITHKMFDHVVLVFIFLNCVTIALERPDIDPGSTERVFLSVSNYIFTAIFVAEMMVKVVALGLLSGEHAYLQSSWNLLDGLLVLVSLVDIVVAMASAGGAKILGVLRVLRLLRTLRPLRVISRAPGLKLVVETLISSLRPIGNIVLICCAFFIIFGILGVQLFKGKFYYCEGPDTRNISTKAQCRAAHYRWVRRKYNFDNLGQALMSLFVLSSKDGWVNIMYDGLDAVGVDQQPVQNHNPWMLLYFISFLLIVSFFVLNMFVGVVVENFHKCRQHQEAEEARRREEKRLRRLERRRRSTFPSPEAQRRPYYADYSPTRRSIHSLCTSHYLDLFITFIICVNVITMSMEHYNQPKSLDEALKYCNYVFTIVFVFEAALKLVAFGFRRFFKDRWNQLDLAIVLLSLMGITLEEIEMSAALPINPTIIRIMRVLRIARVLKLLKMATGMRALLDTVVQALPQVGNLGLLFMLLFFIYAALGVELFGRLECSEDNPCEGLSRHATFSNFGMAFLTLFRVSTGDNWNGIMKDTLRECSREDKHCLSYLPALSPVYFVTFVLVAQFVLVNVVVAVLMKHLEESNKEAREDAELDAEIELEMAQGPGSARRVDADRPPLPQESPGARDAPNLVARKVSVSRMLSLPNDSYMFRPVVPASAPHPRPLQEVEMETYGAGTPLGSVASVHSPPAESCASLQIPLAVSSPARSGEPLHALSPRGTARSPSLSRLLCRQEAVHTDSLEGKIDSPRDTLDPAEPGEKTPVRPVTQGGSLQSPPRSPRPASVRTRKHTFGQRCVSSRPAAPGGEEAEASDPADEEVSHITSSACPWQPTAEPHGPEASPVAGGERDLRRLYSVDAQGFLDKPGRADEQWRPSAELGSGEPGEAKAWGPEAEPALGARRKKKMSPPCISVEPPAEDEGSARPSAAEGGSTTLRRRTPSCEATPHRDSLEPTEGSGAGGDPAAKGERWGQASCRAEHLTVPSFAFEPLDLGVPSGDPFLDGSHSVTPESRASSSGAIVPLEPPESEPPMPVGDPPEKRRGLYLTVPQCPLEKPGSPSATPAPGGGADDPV

| SMILES | IC50 |
| --- | --- |
| Cc1nc(N2CCc3cc(Cl)ncc3C2)nc(=O)n1Cc1ccc(C(F)(F)F)s1 [compound 16] | 650 nM |
| N#Cc1ccc2c(c1)CN(c1ncn(Cc3ccc(C(F)(F)F)s3)c(=O)n1)CC2 [compound 6] | 1800 nM |
| Cc1nc(N2Cc3ccc(OCC(F)(F)F)cc3C2)nc(=O)n1Cc1ccc(C(F)(F)F)s1 [compound 46] | 360 nM |
| COc1ccc2c(c1)[C@@H](O)CN(c1nc(C)n(Cc3ccc(C(F)(F)F)s3)c(=O)n1)C2 [9a] | 4.9 nM |
| Cc1nc(N2CCc3cc(F)ccc3C2)nc(=O)n1Cc1ccc(C(F)(F)F)s1 [compound 52] | 290 nM |
| COc1ccc2c(c1)C(=O)CN(c1nc(C)n(Cc3ccc(C(F)(F)F)s3)c(=O)n1)C2 [compound 36] | 520 nM |
| Cc1nc(N2Cc3ccc(OCC(C)C)cc3C(O)C2)nc(=O)n1Cc1ccc(C(F)(F)F)s1 (stereo not drawn) [compound 39] | 75 nM |
| COc1ccc2c(c1)CCCN(c1nc(C)n(Cc3ccc(C(F)(F)F)s3)c(=O)n1)C2 [compound 49] | 480 nM |
| COc1cccc2c1C(O)CN(c1nc(C)n(Cc3ccc(C(F)(F)F)s3)c(=O)n1)C2 (stereo not drawn) [8a] | 63 nM |
| Cc1nc(N2Cc3cc4c(cc3C(O)C2)OCO4)nc(=O)n1Cc1ccc(C(F)(F)F)s1 (stereo not drawn) [compound 54] | 42 nM |
| O=c1nc(N2CCc3cc(OS(=O)(=O)C(F)(F)F)ccc3C2)ncn1Cc1ccc(C(F)(F)F)s1 [compound 12] | 54 nM |
| COc1nc2c(s1)CN(c1nc(C)n(Cc3ccc(C(F)(F)F)s3)c(=O)n1)CC2 [compound 21] | 360 nM |
| Cc1nc(N2CCn3c(nc4cc(F)ccc43)C2)nc(=O)n1Cc1ccc(C(F)(F)F)s1 [compound 59] | 270 nM |
| Cc1nc(N2CCc3cc(OCC(F)(F)F)ccc3C2)nc(=O)n1Cc1cnc(C(F)(F)F)s1 [compound 5] | 320 nM |
| Cc1nc(N2Cc3ccc(OC(C)C)cc3C(O)C2)nc(=O)n1Cc1ccc(C(F)(F)F)s1 (stereo not drawn) [compound 38] | 38 nM |
| COc1ccc2c(c1)CCN(c1nc(C)n(Cc3ccc(C(F)(F)F)s3)c(=O)n1)CC2 [compound 29] | 40 nM |
| CCOc1ccc2c(c1)C(O)CN(c1nc(C)n(Cc3ccc(C(F)(F)F)s3)c(=O)n1)C2 (stereo not drawn) [compound 18] | 18 nM |
| COc1ccc2c(c1)CCN(c1nc(C)n(Cc3cnc(C(F)(F)F)s3)c(=O)n1)C2 [compound 24] | 940 nM |
| Cc1nc(N2CCc3nc(C4CC4)ccc3C2)nc(=O)n1Cc1ccc(C(F)(F)F)s1 [compound 31] | 240 nM |

| SMILES | IC50 |
| --- | --- |
| Cc1nc(N2CCc3ccccc32)nc(=O)n1Cc1ccc(C(F)(F)F)s1 [compound 34] | 750 nM |
| COc1ccc2c(c1)C(F)CN(c1nc(C)n(Cc3ccc(C(F)(F)F)s3)c(=O)n1)C2 (stereo not drawn) [compound 35] | 51 nM |
| Cc1nc(N2CCc3c([nH]c4cc(F)ccc34)C2)nc(=O)n1Cc1cnc(C(F)(F)F)s1 [compound 58] | 52 nM |
| COc1ccc2c(c1)C(O)CN(c1nc(C)n(Cc3ccc(C(F)(F)F)s3)c(=O)n1)C2 (stereo not drawn) [compound 4] | 20 nM |
| COc1ccc2c(n1)CCN(c1nc(C)n(Cc3ccc(C(F)(F)F)s3)c(=O)n1)C2 [compound 22] | 310 nM |
| COc1ccc2c(c1)[C@H](O)CN(c1nc(C)n(Cc3ccc(C(F)(F)F)s3)c(=O)n1)C2 [9b] | 130 nM |
| Cc1nc(N2Cc3ccc(OC(F)F)cc3C(O)C2)nc(=O)n1Cc1ccc(C(F)(F)F)s1 (stereo not drawn) [compound 53] | 18 nM |
| COc1ccc2c(c1)CN(c1nc(C)n(Cc3ccc(C(F)(F)F)s3)c(=O)n1)C2 [compound 48] | 1900 nM |
| Cc1nc(N2Cc3ccc(OCC4CC4)cc3C(O)C2)nc(=O)n1Cc1ccc(C(F)(F)F)s1 (stereo not drawn) [compound 47] | 52 nM |
| Cc1cc2c(s1)CCN(c1nc(C)n(Cc3ccc(C(F)(F)F)s3)c(=O)n1)C2 [compound 19] | 260 nM |
| O=c1nc(N2CCc3cc(C(F)(F)F)ccc3C2)ncn1Cc1ccc(C(F)(F)F)s1 [compound 1] | 62 nM |
| Cc1nc(N2CCc3cc(OS(=O)(=O)C(F)(F)F)ccc3C2)nc(=O)n1Cc1ccc(C(F)(F)F)s1 [compound 41] | 50 nM |
| Cc1nc(N2CCc3ccccc3C2)nc(=O)n1Cc1ccc(C(F)(F)F)s1 [compound 44] | 320 nM |
| CCOC(=O)c1cc2c(s1)CCN(c1nc(C)n(Cc3ccc(C(F)(F)F)s3)c(=O)n1)C2 [compound 51] | 340 nM |
| Cc1nc(N2CCc3cc(OCC(F)(F)F)ccc3C2)nc(=O)n1Cc1ccc(C(F)(F)F)s1 [compound 40] | 250 nM |
| Cc1nc(N2CCc3nc(Cl)ccc3C2)nc(=O)n1Cc1ccc(C(F)(F)F)s1 [compound 17] | 350 nM |
| COc1ccc2c(c1)C(O)CN(c1nc(C)n(Cc3cnc(C(F)(F)F)s3)c(=O)n1)C2 (stereo not drawn) [compound 25] | 450 nM |
| O=c1nc(N2CCc3cc(OC(F)F)ccc3C2)ncn1Cc1ccc(C(F)(F)F)s1 [compound 11] | 34 nM |
| Cc1nc(N2Cc3ccc(O)cc3C(O)C2)nc(=O)n1Cc1ccc(C(F)(F)F)s1 (stereo not drawn) [compound 42] | 290 nM |

| SMILES | IC50 |
| --- | --- |
| COc1ccc2c(c1)C(O)CN(c1ncn(Cc3ccc(C(F)(F)F)s3)c(=O)n1)C2 (stereo not drawn) [compound 3] | 95 nM |
| Cc1nc(N2CCc3c([nH]c4cc(F)ccc34)C2)nc(=O)n1Cc1ccc(C(F)(F)F)s1 [compound 57] | 6.4 nM |
| COc1ccc2c(c1)C(O)CN(c1nc(C)n(Cc3ccc(OS(=O)(=O)C(F)(F)F)nc3)c(=O)n1)C2 (stereo not drawn) [compound 10] | 320 nM |
| COc1ccc2c(c1)CN(c1nc(C)n(Cc3ccc(C(F)(F)F)s3)c(=O)n1)CC2O (stereo not drawn) [8b] | 790 nM |
| COc1ccc2c(c1)/C(=N/O)CN(c1nc(C)n(Cc3ccc(C(F)(F)F)s3)c(=O)n1)C2 [compound 37] | 130 nM |
| Cc1nc(N2Cc3ccc(OCC(N)=O)cc3C(O)C2)nc(=O)n1Cc1ccc(C(F)(F)F)s1 (stereo not drawn) [compound 45] | 320 nM |
| Cc1nc(N2CCc3sc(CO)cc3C2)nc(=O)n1Cc1ccc(C(F)(F)F)s1 [compound 20] | 400 nM |
| Cc1nc(N2CCc3cc(OC(F)F)ccc3C2)nc(=O)n1Cc1ccc(C(F)(F)F)s1 [compound 14] | 45 nM |
| Cc1nc(N2CCc3ccc(C(F)(F)F)cc3C2)nc(=O)n1Cc1ccc(C(F)(F)F)s1 [compound 43] | 320 nM |
| Cc1ccc2c(n1)CCN(c1nc(C)n(Cc3ccc(C(F)(F)F)s3)c(=O)n1)C2 [compound 30] | 3200 nM |
| Cc1nc(N2CCc3c(Cl)ccc(Cl)c3C2)nc(=O)n1Cc1ccc(C(F)(F)F)s1 [compound 28] | 320 nM |
| O=c1nc(N2CCc3cc(OCC(F)(F)F)ccc3C2)ncn1Cc1ccc(C(F)(F)F)s1 [compound 13] | 55 nM |
| COc1ccc2c(c1OC)C(O)CN(c1nc(C)n(Cc3ccc(C(F)(F)F)s3)c(=O)n1)C2 (stereo not drawn) [compound 50] | 410 nM |
| Cc1nc(N2Cc3ccc(OCC(F)(F)F)cc3C(O)C2)nc(=O)n1Cc1cnc(C(F)(F)F)s1 (stereo not drawn) [compound 23] | 340 nM |
| CCOC(=O)C1Cc2ccccc2CN1c1nc(C)n(Cc2ccc(C(F)(F)F)s2)c(=O)n1 (stereo not drawn) [compound 27] | 2800 nM |
| COc1ccc2c(c1)C(O)CN(c1nc(C)n(Cc3ccc(F)cc3)c(=O)n1)C2 (stereo not drawn) [compound 26] | 3000 nM |
| Cc1nc(N2Cc3ccc(OCC(F)(F)F)cc3C(O)C2)nc(=O)n1Cc1ccc(C(F)(F)F)s1 (stereo not drawn) [compound 15] | 10 nM |
| COc1ccc2c(c1)C(N)CN(c1nc(C)n(Cc3ccc(C(F)(F)F)s3)c(=O)n1)C2 (stereo not drawn) [compound 32] | 27 nM |
| COc1cc2c(cc1OC)CN(c1ncn(Cc3ccc(C(F)(F)F)s3)c(=O)n1)CC2 [compound 2] | 540 nM |
